Active and inactive are the calls of the source. The rule behind the calls is not given here.
Experiments:
[1] = tested on: Influenza A virus; assay: Antiviral activity against Influenza A virus A/Virginia/ATCC2/2009(H1N1) strain infected in MDCK cells assessed as reduction in viral infection incubated for 48 hrs by crystal violet staining based assay; format: functional, organism-based
[2] = Cytotoxicity in dog MDCK cells assessed as reduction in cell viability incubated for 48 hrs by crystal violet staining based assay; format: toxicity, Canis lupus familiaris
[3] = tested on: Influenza A virus; assay: Antiviral activity against Influenza A virus A/WSN/33(H1N1) strain infected in MDCK cells assessed as reduction in viral infection incubated for 48 hrs by crystal violet staining based assay; format: functional, organism-based
[4] = tested on: HEK293T; assay: (§1) Inhibition of Influenza A virus RNA dependent RNA polymerase activity in HEK293T cells co-transfected with pPoll/NP(0)GFP(0) assessed as reduction on number of GFP positive cells at 10 uM after 2 hrs post-transfection followed by compound addition incubated for 22 hrs by fluorescence microscopic analysis; format: cell-based
[5] = tested on: Influenza A virus; assay: Antiviral activity against Influenza A virus A/Puerto Rico/8/34(H1N1) strain infected in MDCK cells assessed as reduction in viral infection incubated for 48 hrs by crystal violet staining based assay; format: functional, organism-based
[6] = tested on: Influenza A virus; assay: Antiviral activity against Influenza A virus A/Aichi/8/68(H3N2) strain infected in MDCK cells assessed as reduction in viral infection incubated for 48 hrs by crystal violet staining based assay; format: functional, organism-based
[7] = tested on: HEK293T; assay: Inhibition of Influenza A virus RNA dependent RNA polymerase activity in HEK293T cells co-transfected with pPoll/NP(0)GFP(0) after 2 hrs post-transfection followed by compound addition incubated for 22 hrs by fluorescence microscopic analysis; format: cell-based
[8] = tested on: Influenza A virus; assay: Antiviral activity against Influenza A virus B/Lee/40(type B) strain infected in MDCK cells assessed as reduction in viral infection incubated for 48 hrs by crystal violet staining based assay; format: functional, organism-based
[9] = tested on: Influenza A virus; assay: Antiviral activity against Influenza A virus A/California/7/2009(H1N1) strain infected in MDCK cells assessed as reduction in viral infection incubated for 48 hrs by crystal violet staining based assay; format: functional, organism-based
[10] = tested on: HEK293T; assay: as §1, with “nM” for “uM”; format: cell-based
[11] = tested on: HEK293T; assay: Inhibition of Influenza A virus RNA dependent RNA polymerase activity in HEK293T cells co-transfected with pPoll/NP(0)GFP(0) at 10 to 40 uM after 2 hrs post-transfection followed by compound addition incubated for 22 hrs by fluorescence microscopic analysis; format: cell-based; details: dose 10-40 µM

Row | Compound | CC50 at 48 h [2] [nM] | EC50 [3] [nM] | further results
1 | COc1ccc2[nH]c(=O)c(CN(Cc3ccc(C(C)(C)C)cc3)C(C)c3ccc(OC)c(Cl)c3)cc2c1 (stereo unspecified) | > 10000 | 61 | EC50 [1]: 77 nM; inhibition [4]: Active; EC50 [5]: 72 nM; EC50 [6]: 85 nM; inhibition [7]: Active; EC50 [8]: 79 nM; EC50 [9]: 230 nM
2 | NC(=O)c1nc(F)cnc1O [FAVIPIRAVIR] |  | 1900 | EC50 [9]: 2900 nM
3 | O=C1c2c(O)c(=O)ccn2N([C@@H]2c3ccccc3SCc3c2ccc(F)c3F)[C@@H]2COCCN12 [BALOXAVIR] |  | 3 | inhibition [10]: Active; EC50 [1]: 6 nM; EC50 [5]: 7 nM; EC50 [6]: 4 nM; EC50 [8]: 170 nM; EC50 [9]: 4 nM
4 | CCC(C)(C)n1nnnc1C(c1cc2cccc(C)c2[nH]c1=O)N(Cc1ccccc1)Cc1ccc(F)cc1 (stereo unspecified) | > 83000 | 570 | inhibition [11]: Dose-Dependent Effect
5 | CCc1ccc2[nH]c(=O)c(CN(Cc3ccc(C(C)(C)C)cc3)C(C)c3ccc(OC)cc3)cc2c1 (stereo unspecified) | > 5000 | 220 | 
6 | CCc1ccc2[nH]c(=O)c(CN(Cc3ccc(C(C)(C)C)cc3)[C@@H](C)c3ccc(F)cc3)cc2c1 | > 5000 | 790 | 
7 | COc1ccc(C(C)N(Cc2ccc(C(C)(C)C)cc2)Cc2cc3cc(Br)ccc3[nH]c2=O)cc1Cl (stereo unspecified) | > 10000 | 530 | 
8 | CC(C)c1ccc2[nH]c(=O)c(CN(Cc3ccc(C(C)(C)C)cc3)C(C)c3ccc(N(C)C)c(Cl)c3)cc2c1 (stereo unspecified) | > 10000 | 680 | 
9 | COc1ccc([C@H](C)N(Cc2ccc(OC(F)(F)F)cc2)Cc2cc3cc(Cl)ccc3[nH]c2=O)cc1 | > 10000 | 3600 | 
10 | Cc1ccc2cc(CN(Cc3ccc(F)cc3)Cc3ccc(C(F)(F)F)cc3)c(=O)[nH]c2c1 | > 33000 | 2100 | 
11 | C[C@@H](c1ccc(OC(F)(F)F)cc1)N(Cc1ccc(C(C)(C)C)cc1)Cc1cc2cc(C3CC3)ccc2[nH]c1=O | > 10000 | 77 | EC50 [1]: 64 nM; inhibition [4]: Active; EC50 [5]: 67 nM; EC50 [6]: 72 nM; inhibition [7]: Active; EC50 [8]: 230 nM; EC50 [9]: 270 nM
12 | CCc1ccc2[nH]c(=O)c(CN(Cc3ccc(OC(F)F)cc3)Cc3ccc(C(C)(C)C)cc3)cc2c1 | > 5000 | 460 | 
13 | Cc1ccc2[nH]c(=O)c(CN(Cc3ccc(C(C)(C)C)cc3)C(C)c3ccc(N(C)C)c(Cl)c3)cc2c1 (stereo unspecified) | 9800 | 120 | 
14 | Cc1ccc2[nH]c(=O)c(CN(Cc3ccc(OC(F)F)cc3)Cc3ccc(C(C)(C)C)cc3)cc2c1 | > 5000 | 270 | 
15 | CC(C)(C)c1ccc(CN(Cc2ccc(C(F)(F)F)c(Cl)c2)Cc2cc3cc(C4CC4)ccc3[nH]c2=O)cc1 | > 10000 | 630 | 
16 | CCc1ccc2[nH]c(=O)c(CN(Cc3ccc(C(C)(C)C)cc3)C(C)c3ccc(OC)c(Cl)c3)cc2c1 (stereo unspecified) | > 10000 | 170 | 

Row | Compound | CC50 at 48 h [2] [nM] | EC50 [3] [nM] | further results
17 | CC(C)c1ccc2[nH]c(=O)c(CN(Cc3ccc(C(C)(C)C)cc3)C(C)c3ccc(F)cc3)cc2c1 (stereo unspecified) | 13100 | 5400 | 
18 | Cc1ccc2[nH]c(=O)c(CN(Cc3ccc(SC(F)(F)F)cc3)Cc3ccc(C(C)(C)C)cc3)cc2c1 | > 5000 | 1300 | 
19 | COc1ccc2[nH]c(=O)c(CN(Cc3ccc(C(C)(C)C)cc3)Cc3ccc(C(F)(F)F)c(Cl)c3)cc2c1 | > 10000 | 85 | 
20 | CCCOc1ccc(CN(Cc2ccc(C(C)(C)C)cc2)Cc2cc3cc(C)ccc3[nH]c2=O)cc1 | > 5000 | 3000 | 
21 | Cc1ccc2[nH]c(=O)c(CN(Cc3ccc(OCC(=O)OC(C)(C)C)cc3)Cc3ccc(C(C)(C)C)cc3)cc2c1 | > 10000 | 1800 | 
22 | Cc1ccc2[nH]c(=O)c(CN(Cc3ccccc3)Cc3ccc(C(C)(C)C)cc3)cc2c1 | > 5000 | 920 | 
23 | CCc1ccc2[nH]c(=O)c(CN(Cc3ccc(C(C)(C)C)cc3)[C@@H](C)c3ccc(OC)cc3)cc2c1 | > 5000 | 103 | inhibition [11]: Dose-Dependent Effect; inhibition [4]: Active; inhibition [7]: Active
24 | CCOC(=O)C1=C[C@@H](OC(CC)CC)[C@H](NC(C)=O)[C@@H](N)C1 [OSELTAMIVIR PHOSPHATE] |  | 2010 | EC50 [1]: 18500 nM; inhibition [11]: inactive; EC50 [5]: 11600 nM; EC50 [6]: 2250 nM; EC50 [9]: 4620 nM
25 | Cc1ccc2[nH]c(=O)c(CN(Cc3ccc(C(C)(C)C)cc3)C(C)c3ccc(OC(F)F)cc3)cc2c1 (stereo unspecified) | > 5000 | 360 | 
26 | Cc1ccc2cc(C(C)N(Cc3ccc(F)cc3)Cc3ccc(C(C)C)cc3)c(=O)[nH]c2c1 (stereo unspecified) | > 33000 | 1900 | 
27 | Cc1ccc2cc(CN(Cc3ccc(F)cc3)Cc3ccc(C(C)(C)C)cc3)c(=O)[nH]c2c1 | > 33000 | 1600 | 
28 | Cc1cccc2cc(C(C#N)N(Cc3ccccc3)Cc3ccc(F)cc3)c(=O)[nH]c12 (stereo unspecified) | > 83000 | 38000 | 
29 | Cc1ccc2[nH]c(=O)c(CN(Cc3ccc(C#N)cc3)Cc3ccc(C(C)(C)C)cc3)cc2c1 | > 5000 | 500 | 
30 | CCc1ccc2[nH]c(=O)c(CN(Cc3ccc(C(C)(C)C)cc3)Cc3ccc(F)c(F)c3)cc2c1 | > 33000 | 63000 | 
31 | CCc1ccc2[nH]c(=O)c(CN(Cc3ccc(OCOC)cc3)Cc3ccc(C(C)(C)C)cc3)cc2c1 | > 10000 | 1000 | 
32 | Cc1ccc2[nH]c(=O)c(CN(Cc3ccc(C(C)(C)C)cc3)C(C)c3ccc(F)cc3)cc2c1 (stereo unspecified) | > 33000 | 1300 | 
